Data from patent publication US8232299B2, “Phthalimide derivatives that influence cellular vesicular systems, pharmaceutical compositions, and use thereof” (Avidin Kft., priority 2007, dated 2012).

Legend:
SEC22b protein = biological target: T1, SEC22b protein (Homo sapiens, UniProt O75396); assay: binding to vesicle movement protein
T1 sequence (O75396 1-215): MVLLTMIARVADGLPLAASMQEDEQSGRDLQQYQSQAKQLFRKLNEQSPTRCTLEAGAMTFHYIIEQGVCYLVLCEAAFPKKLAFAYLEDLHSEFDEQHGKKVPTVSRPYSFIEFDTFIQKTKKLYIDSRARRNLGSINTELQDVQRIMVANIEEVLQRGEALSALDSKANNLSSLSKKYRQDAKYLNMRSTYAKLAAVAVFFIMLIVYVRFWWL

[1] = system: RVH human melanoma cell line; assay: cytotoxic effect on melanoma cell line, MTS assay, 48 hours; type: cell-based; settings: 48 hours treatment; FIG. 4
Method: RVH human melanoma cell line was cultured in Minimum Essential Medium Eagle (Sigma, St. Louis, Mo., USA), Na-piruvate, Glutamine, Non-essential amino acids, penicillin (50 IU/ml)-streptomycin ([…]), 10% fetal bovine serum at 37° C., in 5% CO2. Cells were trypsinized with trypsin/EDTA (Sigma-Aldrich, St. Louis, Mo.) on every second day and were passed into 60 or 100 mm plates. When the culture reached the required cell number (approx. 10^6) for the planned experiment 50.00 cell/well was plated into 24 well plates (Costar® 24 Well TC-Treated Microplates) and left overnight to adhere to the bottom of the well. Addition of the substance was performed the following way: next day the culture media was drawn from the adhered cells and media comprising compounds of the present invention in appropriate concentration and well mixed therein was pipetted (2 ml/well) onto the cells. The substance to be examined was diluted in 100% DMSO, this way an amount of DMSO corresponding to the highest concentration of the substance in a given assay were measured in the media of the control wells. After 48 hours of treatment live cells were detected by CellTiter® 96 Aqueous Non-radioactive Cell Proliferation Assay (Promega, Madison, Wis., USA) to determine the number of live cells in the treated and in the control samples.
MTS is converted to formazane in the living cells, which product is dissolved in the media, and its quantity/absorbance can be measured at 490 nm. […] Then, for the determination of the ratio of live cells 20 μl MTS and 1 μl PMS are added to 100 μl media. The enzyme reaction occurs at incubation at 37° C., 5% CO2 for 1 to 4 hours. Formazane produced by the cells is read on ELISA plate reader, from which the number of living cells can be obtained indirectly. Since the inventors performed the experiments in 24 well plates with 50.000 cell/well, the protocol had to be modified. After treatment of the cells for an appropriate time (type of compound, different concentrations), the incubation media (2 ml) containing the examined substance was removed, then 400 μl media containing reagents in the same concentration as given above (333.3 μl media, 66.6 μl MTS, and 3.3 μl PMS per well) was pipetted to the cells. To be able to use ELISA plate reader (Multiskan R C, Thermo Labsystems, Franklin, Mass., USA) 400 μl sample from each single well of the 24 well plate was pipetted into four wells of a 96 well plate (Micromethod plates 96 wells flat form) in 100 μl aliquots. That also helped to eliminate possible errors due to inconsistent pipetting. On each 24 well plate 4 wells were control samples. From these 3 times 100 μl was pipetted onto the 96 well plates, so, altogether 12 controls were provided on each 96 well plate. The remaining 4 wells were for background measurements with 100 μl media containing MTS and PMS as described above.

TNFα = assay: early (preformed) TNFα secretion of RAW.264.7 macrophages, ELISA; type: cell-based, mice
Text: Matured macrophages produce tumor necrosis factor (TNF-alpha or TNFα) in response to bacterial lipopolysaccharide (E. coli LPS, Sigma) stimulation. TNFα production is induced by […] to the toll-like receptor 4 (TLR-4), the lipopolysaccharide binding protein (LBP), and the CD14 receptor. Secretion of the TNFα is biphasic. For one hour after the stimulation macrophages respond with release of preformed TNFα. Meanwhile, the NF-kappaB signaling pathway turns on the TNFα gene transcription reaching maximum after approximately 8 hours.
In our experiments we investigated the early TNFα secretion of RAW.264.7 matured mice macrophages. This cell line stores large amount of preformed TNFα. […] Culture supernatant was collected and TNFα content was determined by R&D Duoset ELISA kit (detection limit<62.5 pg/ml). […] So the reduced TNFα level was due to inhibition of the release of preformed TNFα and not due to dying of the cells.
In this example two controls (diluent only—ethanol incubated) and four treated samples were analyzed.

human melanoma (HT168M1) = assay: spleen/liver animal model, melanoma cells injected into spleen; type: in vivo, CB17/scid mice
Method: Studies were conducted in the spleen/liver animal model. From 40 adult male CB17/scid mice, born with immunodeficiency, 20 were randomly selected, and they were further divided into two groups. Animals were marked on their ear one by one. 10 of the selected mice were treated with compound 3b (40 mg/kg) for 5 days (PRETREATED/3b), the other 10 animals were treated per os by gavage with appropriate dilution of DMSO serving as the carrier (PRETREATED/control). On the 5th treatment day all the 40 animals were anesthetized by Nembutal (75 mg/kg), and 4×10^4 cells from human melanoma (HT168M1) was injected into their spleens (i.s.). Local bleeding during the implantation was treated with Gelaspon resorbable gelatin sponge. On the 7th day after the implantation the non-treated 20 mice were randomly assigned into two groups and their ear was marked. 10 mice were treated from this time on with compound 3b (40 mg/kg) (POSTTREATED/3b), the other 10 were treated with appropriate dilution of the carrier (DMSO) with similar frequency (POSTTREATED/control) per os once a day five times per week for three weeks. Pretreated groups were not treated after the implantation. Body weight changes were monitored once a week for each animal. 31 days after implantation animals were sacrificed by bleeding in Nembutal (75 mg/kg) anesthesia. […]

[2] = system: pseudorabies Bartha type viruses; type: cell-based, pseudorabies virus; settings: 100 μM

CCNc1c(F)c(F)c2c(c1F)C(=O)N(c1c(C(C)C)cccc1C(C)C)C2=O [Compound 3b, 2-(2,6-diisopropylphenyl)-5-(ethylamino)-4,6,7-trifluoroisoindole-1,3-dione]
binding to SEC22b protein (SEC22b protein): can also bind to SEC22b protein | inhibition of RVH melanoma cells (cytotoxic effect) [1]: strongest inhibition | LPS stimulated TNFα release of the macrophages (TNFα; 100 ng/ml LPS, FIG. 2b): reduces the induced TNFα release | basal TNFα release of the macrophages (TNFα; without LPS induction, FIG. 2a): able to reduce the basal TNFα release | further metastasis of the adhered cells (human melanoma (HT168M1); posttreatment 40 mg/kg per os from day 7, five times per week for three weeks, not statistically significant): slightly inhibited | number of metastases (human melanoma (HT168M1); pretreatment 40 mg/kg per os for 5 days before implantation, p=0.05, FIG. 7): significantly reduced the number of metastases | entry of the viruses into the cell [2]: does not inhibit the entry of the viruses into the cell | release and spreading of the viruses in vitro [2]: does inhibit their release and thus their spreading in vitro | plaque size (viral positive cells) ([2]; 24 hours): 2-6 cells/plaque
